# Data published in ChEMBL document CHEMBL3044945, “Synthesis of 1,3,5-trisubstituted pyrazoline nucleus containing compounds and screening for antimicrobial activity” (2012).
# Columns and labels:
# Assay type in all cases: functional
# Bacillus subtilis [1] = assay: Antibacterial activity against Bacillus subtilis MTCC 441 at 1000 ug/ml after 48 hr by cup-plate method; conditions: MTCC 441, 48 h, read-out: DIZ
# Pseudomonas fluorescens [2] = assay: Antibacterial activity against Pseudomonas fluorescens MTCC 2421 at 100 ug/ml after 48 hr by cup-plate method; conditions: MTCC 2421, 48 h, read-out: DIZ
# Bacillus subtilis [3] = assay: Antibacterial activity against Bacillus subtilis MTCC 441 at 750 ug/ml after 48 hr by cup-plate method; conditions: MTCC 441, 48 h, read-out: DIZ
# Pseudomonas fluorescens [4] = assay: Antibacterial activity against Pseudomonas fluorescens MTCC 2421 at 750 ug/ml after 48 hr by cup-plate method; conditions: MTCC 2421, 48 h, read-out: DIZ
# Escherichia coli [5] = assay: Antibacterial activity against Escherichia coli MTCC 1573 at 1250 ug/ml after 48 hr by cup-plate method; conditions: MTCC 1573, 48 h, read-out: DIZ
# Staphylococcus aureus [6] = assay: Antibacterial activity against Staphylococcus aureus MTCC 1430 at 1250 ug/ml after 48 hr by cup-plate method; conditions: MTCC 1430, 48 h, read-out: DIZ
# Pseudomonas aeruginosa [7] = assay: Antibacterial activity against Pseudomonas aeruginosa MTCC 424 at 250 ug/ml after 48 hr by cup-plate method; conditions: MTCC 424, 48 h, read-out: DIZ
# Bacillus subtilis [8] = assay: Antibacterial activity against Bacillus subtilis MTCC 441 at 500 ug/ml after 48 hr by cup-plate method; conditions: MTCC 441, 48 h, read-out: DIZ
# Escherichia coli [9] = assay: Antibacterial activity against Escherichia coli MTCC 1573 at 500 ug/ml after 48 hr by cup-plate method; conditions: MTCC 1573, 48 h, read-out: DIZ
# Aspergillus niger [10] = assay: Antifungal activity against Aspergillus niger MTCC 2546 at 250 ug/ml after 48 hr by cup-plate method; conditions: MTCC 2546, 48 h, read-out: DIZ
# Bacillus pumilus [11] = assay: Antibacterial activity against Bacillus pumilus MTCC 1456 at 250 ug/ml after 48 hr by cup-plate method; conditions: MTCC 1456, 48 h, read-out: DIZ
# Micrococcus luteus [12] = assay: Antibacterial activity against Micrococcus luteus MTCC 1538 at 1250 ug/ml after 48 hr by cup-plate method; conditions: MTCC 1538, 48 h, read-out: DIZ
# Escherichia coli [13] = assay: Antibacterial activity against Escherichia coli MTCC 1573 at 1000 ug/ml after 48 hr by cup-plate method; conditions: MTCC 1573, 48 h, read-out: DIZ
# Escherichia coli [14] = assay: Antibacterial activity against Escherichia coli MTCC 1573 after 24 to 48 hr by tube dilution method
# Bacillus subtilis [15] = assay: Antibacterial activity against Bacillus subtilis MTCC 441 at 250 ug/ml after 48 hr by cup-plate method; conditions: MTCC 441, 48 h, read-out: DIZ
# Aspergillus niger [16] = assay: Antifungal activity against Aspergillus niger MTCC 2546 at 100 ug/ml after 48 hr by cup-plate method; conditions: MTCC 2546, 48 h, read-out: DIZ
# Penicillium chrysogenum [17] = assay: Antifungal activity against Penicillium chrysogenum MTCC 161 after 24 to 48 hr by tube dilution method
# Pseudomonas aeruginosa [18] = assay: Antibacterial activity against Pseudomonas aeruginosa MTCC 424 after 24 to 48 hr by tube dilution method
# Aspergillus niger [19] = assay: Antifungal activity against Aspergillus niger MTCC 2546 at 500 ug/ml after 48 hr by cup-plate method; conditions: MTCC 2546, 48 h, read-out: DIZ
# Penicillium chrysogenum [20] = assay: Antifungal activity against Penicillium chrysogenum MTCC 161 at 750 ug/ml after 48 hr by cup-plate method; conditions: MTCC 161, 48 h, read-out: DIZ
# Staphylococcus aureus [21] = assay: Antibacterial activity against Staphylococcus aureus MTCC 1430 at 750 ug/ml after 48 hr by cup-plate method; conditions: MTCC 1430, 48 h, read-out: DIZ
# Penicillium chrysogenum [22] = assay: Antifungal activity against Penicillium chrysogenum MTCC 161 at 1000 ug/ml after 48 hr by cup-plate method; conditions: MTCC 161, 48 h, read-out: DIZ
# Penicillium chrysogenum [23] = assay: Antifungal activity against Penicillium chrysogenum MTCC 161 at 500 ug/ml after 48 hr by cup-plate method; conditions: MTCC 161, 48 h, read-out: DIZ
# Penicillium chrysogenum [24] = assay: Antifungal activity against Penicillium chrysogenum MTCC 161 at 100 ug/ml after 48 hr by cup-plate method; conditions: MTCC 161, 48 h, read-out: DIZ
# Aspergillus niger [25] = assay: Antifungal activity against Aspergillus niger MTCC 2546 after 24 to 48 hr by tube dilution method
# Pseudomonas aeruginosa [26] = assay: Antibacterial activity against Pseudomonas aeruginosa MTCC 424 at 750 ug/ml after 48 hr by cup-plate method; conditions: MTCC 424, 48 h, read-out: DIZ
# Escherichia coli [27] = assay: Antibacterial activity against Escherichia coli MTCC 1573 at 100 ug/ml after 48 hr by cup-plate method; conditions: MTCC 1573, 48 h, read-out: DIZ
# Aspergillus niger [28] = assay: Antifungal activity against Aspergillus niger MTCC 2546 at 1000 ug/ml after 48 hr by cup-plate method; conditions: MTCC 2546, 48 h, read-out: DIZ
# Micrococcus luteus [29] = assay: Antibacterial activity against Micrococcus luteus MTCC 1538 at 1000 ug/ml after 48 hr by cup-plate method; conditions: MTCC 1538, 48 h, read-out: DIZ
# Pseudomonas aeruginosa [30] = assay: Antibacterial activity against Pseudomonas aeruginosa MTCC 424 at 1000 ug/ml after 48 hr by cup-plate method; conditions: MTCC 424, 48 h, read-out: DIZ
# Bacillus pumilus [31] = assay: Antibacterial activity against Bacillus pumilus MTCC 1456 at 500 ug/ml after 48 hr by cup-plate method; conditions: MTCC 1456, 48 h, read-out: DIZ
# Bacillus subtilis [32] = assay: Antibacterial activity against Bacillus subtilis MTCC 441 at 1250 ug/ml after 48 hr by cup-plate method; conditions: MTCC 441, 48 h, read-out: DIZ
# Pseudomonas aeruginosa [33] = assay: Antibacterial activity against Pseudomonas aeruginosa MTCC 424 at 500 ug/ml after 48 hr by cup-plate method; conditions: MTCC 424, 48 h, read-out: DIZ
# Bacillus pumilus [34] = assay: Antibacterial activity against Bacillus pumilus MTCC 1456 after 24 to 48 hr by tube dilution method
# Bacillus pumilus [35] = assay: Antibacterial activity against Bacillus pumilus MTCC 1456 at 1250 ug/ml after 48 hr by cup-plate method; conditions: MTCC 1456, 48 h, read-out: DIZ
# Staphylococcus aureus [36] = assay: Antibacterial activity against Staphylococcus aureus MTCC 1430 at 1000 ug/ml after 48 hr by cup-plate method; conditions: MTCC 1430, 48 h, read-out: DIZ
# Pseudomonas fluorescens [37] = assay: Antibacterial activity against Pseudomonas fluorescens MTCC 2421 after 24 to 48 hr by tube dilution method
# Bacillus pumilus [38] = assay: Antibacterial activity against Bacillus pumilus MTCC 1456 at 1000 ug/ml after 48 hr by cup-plate method; conditions: MTCC 1456, 48 h, read-out: DIZ
# Escherichia coli [39] = assay: Antibacterial activity against Escherichia coli MTCC 1573 at 750 ug/ml after 48 hr by cup-plate method; conditions: MTCC 1573, 48 h, read-out: DIZ
# Staphylococcus aureus [40] = assay: Antibacterial activity against Staphylococcus aureus MTCC 1430 at 250 ug/ml after 48 hr by cup-plate method; conditions: MTCC 1430, 48 h, read-out: DIZ
# Bacillus pumilus [41] = assay: Antibacterial activity against Bacillus pumilus MTCC 1456 at 750 ug/ml after 48 hr by cup-plate method; conditions: MTCC 1456, 48 h, read-out: DIZ
# Pseudomonas aeruginosa [42] = assay: Antibacterial activity against Pseudomonas aeruginosa MTCC 424 at 1250 ug/ml after 48 hr by cup-plate method; conditions: MTCC 424, 48 h, read-out: DIZ
# Bacillus pumilus [43] = assay: Antibacterial activity against Bacillus pumilus MTCC 1456 at 100 ug/ml after 48 hr by cup-plate method; conditions: MTCC 1456, 48 h, read-out: DIZ
# Micrococcus luteus [44] = assay: Antibacterial activity against Micrococcus luteus MTCC 1538 at 750 ug/ml after 48 hr by cup-plate method; conditions: MTCC 1538, 48 h, read-out: DIZ
# Bacillus subtilis [45] = assay: Antibacterial activity against Bacillus subtilis MTCC 441 at 100 ug/ml after 48 hr by cup-plate method; conditions: MTCC 441, 48 h, read-out: DIZ
smiles,measurement,setting,value
NC(=S)N1N=C(c2cccc3ccccc23)CC1c1ccc([N+](=O)[O-])cc1 (stereo not given),zone of inhibition at 1000 µg/mL,Bacillus subtilis [1],19 mm
same,zone of inhibition at 100 µg/mL,Pseudomonas fluorescens [2],8 mm
same,zone of inhibition at 750 µg/mL,Bacillus subtilis [3],16 mm
same,zone of inhibition at 750 µg/mL,Pseudomonas fluorescens [4],22 mm
same,zone of inhibition at 1250 µg/mL,Escherichia coli [5],18 mm
same,zone of inhibition at 1250 µg/mL,Staphylococcus aureus [6],14 mm
same,zone of inhibition at 250 µg/mL,Pseudomonas aeruginosa [7],11 mm
same,zone of inhibition at 500 µg/mL,Bacillus subtilis [8],12 mm
same,zone of inhibition at 500 µg/mL,Escherichia coli [9],11 mm
same,zone of inhibition at 250 µg/mL,Aspergillus niger [10],11 mm
same,zone of inhibition at 250 µg/mL,Bacillus pumilus [11],11 mm
same,zone of inhibition at 1250 µg/mL,Micrococcus luteus [12],19 mm
same,zone of inhibition at 1000 µg/mL,Escherichia coli [13],16 mm
same,MIC,Escherichia coli [14],50 µg/mL
same,zone of inhibition at 250 µg/mL,Bacillus subtilis [15],11 mm
same,zone of inhibition at 100 µg/mL,Aspergillus niger [16],10 mm
same,MIC,Penicillium chrysogenum [17],30 µg/mL
same,MIC,Pseudomonas aeruginosa [18],50 µg/mL
same,zone of inhibition at 500 µg/mL,Aspergillus niger [19],17 mm
same,zone of inhibition at 750 µg/mL,Penicillium chrysogenum [20],19 mm
same,zone of inhibition at 750 µg/mL,Staphylococcus aureus [21],11 mm
same,zone of inhibition at 1000 µg/mL,Penicillium chrysogenum [22],21 mm
same,zone of inhibition at 500 µg/mL,Penicillium chrysogenum [23],16 mm
same,zone of inhibition at 100 µg/mL,Penicillium chrysogenum [24],10 mm
same,MIC,Aspergillus niger [25],30 µg/mL
same,zone of inhibition at 750 µg/mL,Pseudomonas aeruginosa [26],16 mm
same,zone of inhibition at 100 µg/mL,Escherichia coli [27],8 mm
same,zone of inhibition at 1000 µg/mL,Aspergillus niger [28],24 mm
same,zone of inhibition at 1000 µg/mL,Micrococcus luteus [29],16 mm
same,zone of inhibition at 1000 µg/mL,Pseudomonas aeruginosa [30],19 mm
same,zone of inhibition at 500 µg/mL,Bacillus pumilus [31],16 mm
same,zone of inhibition at 1250 µg/mL,Bacillus subtilis [32],22 mm
same,zone of inhibition at 500 µg/mL,Pseudomonas aeruginosa [33],12 mm
same,MIC,Bacillus pumilus [34],30 µg/mL
same,zone of inhibition at 1250 µg/mL,Bacillus pumilus [35],21 mm
same,zone of inhibition at 1000 µg/mL,Staphylococcus aureus [36],12 mm
same,MIC,Pseudomonas fluorescens [37],30 µg/mL
same,zone of inhibition at 1000 µg/mL,Bacillus pumilus [38],19 mm
same,zone of inhibition at 750 µg/mL,Escherichia coli [39],14 mm
same,zone of inhibition at 250 µg/mL,Staphylococcus aureus [40],9 mm
same,zone of inhibition at 750 µg/mL,Bacillus pumilus [41],18 mm
same,zone of inhibition at 1250 µg/mL,Pseudomonas aeruginosa [42],22 mm
same,zone of inhibition at 100 µg/mL,Bacillus pumilus [43],10 mm
same,zone of inhibition at 750 µg/mL,Micrococcus luteus [44],14 mm
same,zone of inhibition at 100 µg/mL,Bacillus subtilis [45],9 mm
